The values below come from patent US20250186397A1, “COMPOUNDS FOR THE USE IN THE TREATMENT OF MOOD DISORDERS” (Kanna Health Ltd, priority 2022, published 2025).

Data set [1] deals with C57B6J mice. Briefly: Sucrose preference test after chronic mild unpredictable stress. The format is in vivo. Conditions: relative to stress vehicle; for sucrose preference: all time points tested. The procedure: FIG. 4. Effect of mesembrenol (0.3, 1 and 3 mg/kg, i.p.) administered 30 minutes pre-test on sucrose preference following chronic mild unpredictable stress. Data represents cumulative % preference for sucrose solution over water at the 4, 8, 12 and 24 hour timepoints of the test period. Analysis by repeat measures two-way ANOVA followed by multiple comparisons with Dunnet's correction; *-****P<0.05-0.0001 vs stress vehicle (n=8).
FIG. 5. Effect of mesembranol (0.3, 1 and 3 mg/kg, i.p.) administered 30 minutes pre-test on sucrose preference following chronic mild unpredictable stress. Data represents cumulative % preference for sucrose solution over water at the 4, 8, 12 and 24 hour timepoints of the test period. Analysis by two-way ANOVA followed by multiple comparisons with Sidak's correction; *-*P<0.001-0.0001 vs stress vehicle (n=8).
(§1) C57BI6J mice, will be housed in groups of 4, will be exposed to a variety of mild stressors for a period of four weeks.
(§2) The stressors will include wet bedding, 40° cage tilt, introduction of intruder mouse from different experimental cohort, food deprivation, water deprivation, overnight illumination, and presence of soiled rat bedding as an aversive odour. These stressors are randomly scheduled over each weekly period and repeated for the duration of the experiment. Each stressor is applied for a period of 8-16 hours.
(§3) A cohort of depression-like phenotype in adult male C57B6J mice is produced by employing a four-week mild unpredictable stress protocol.
An additional readout was used to assess antidepressant-like activity of the test compounds using a further measure of anhedonia, the sucrose preference test.
During this test, mice are housed individually and provided, for 24 hours, a free choice between two bottles, one with 1% sucrose solution and another with filtered tap water.
To prevent possible effects of side preference in drinking behaviour, the position of the bottles is swapped after 12 hours. The consumption of water and sucrose solution is estimated simultaneously in control and experimental groups by weighing the bottles. The sucrose intake is calculated as an amount of consumed sucrose in mg per gram body weight. The preference for sucrose is calculated as a percentage of consumed sucrose solution of the total amount of liquid drunk.
A decrease of sucrose preference below 65%, is taken as the criterion for anhedonia. […] In addition, mice with a lower than 65% sucrose preference in other models display features of anhedonia and depression, such as an increased threshold of intracranial self-stimulation and sleep disturbances.
The effect of 2 weeks treatment with imipramine or the acute effect of the test compound or vehicle is determined over this 24 hour period.

In data set [2] the test system is C57B6J mice. Put plainly: Forced swim test after chronic mild unpredictable stress. The format is in vivo. To be noted: 3 mg/kg i.p., 30 minutes pre-test, relative to vehicle. The method, then: FIG. 6. Effect of mesembrenol (0.3, 1 and 3 mg/kg, i.p.) administered 30 minutes pre-test on chronic mild unpredictable stress induced depression phenotype in the forced swim test. Data represents (A) latency to immobility (sec) and (B) total time immobile in the four minute evaluation phase of the procedure. Analysis by one-way ANOVA followed by multiple comparisons with Sidak's and Dunn's correction; **-****P<0.01-0.0001 vs stress vehicle (n=8).
FIG. 7. Effect of mesembranol (0.3, 1 and 3 mg/kg, i.p.) administered 30 minutes pre-test on chronic mild unpredictable stress induced depression phenotype in the forced swim test. Data represents (A) latency to immobility (sec) and (B) total time immobile in the four minute evaluation phase of the procedure. Analysis by one-way ANOVA followed by multiple comparisons with Sidak's correction; ***-****P<0.001-0.0001 vs stress vehicle (n=8).
as §1, §2, §3
The effect of treatment with the test compounds on chronic mild stress induced immobility in the forced swim test was tested to establish antidepressant-like activity.
Following the 24 hour sucrose preference test, animals are treated again with the test compound, imipramine or vehicle. Animals are individually placed in clear Plexiglas cylinders (25 cm high; 10 cm in diameter) which are filled to a depth of 15 cm with water at 22-25° C.
Testing is conducted under low level red light and behaviour recorded over a 6 minute period using a video camera placed above the cylinder. During the test the animals are placed in the cylinder and allowed to habituate for two minutes before the cumulative duration of time spent immobile is determined over the following 4 minutes. Latency to immobility is recorded.
Movements necessary for the animal to maintain its head above water will not be scored as activity.

A short description of another data set: in vivo. Conditions: male, C57BI/6J, mouse, ip, 10 mg/kg.

Description for in vivo: Groups of male C57BI/6J mice received a single administration of test compound (10 mg/kg; i.p.) in methylcellulose (0.5% w/v).
Three mice from each dose group were subject to cardiac puncture under general anaesthesia at 0.25, 0.50, 1.00, 2.00, 4.00, 7.00 and 24.0 hours post-dose and plasma samples generated for application of standard LC-MS/MS bioanalytical methods.
Quantitation of compound concentration was derived from reference calibration data. Pharmacokinetic data were derived from serial plasma concentrations.

Take `COc1ccc(C23C=CC(O)CC2N(C)CC3)cc1OC` (stereo not shown) [Mesembrenol]: in the data set with C57B6J mice [1] (1 mg/kg i.p.), the sucrose preference entry was “significant increase”. For the same molecule, the sucrose preference result with C57B6J mice [1] (3 mg/kg i.p.) is “significant increase”. For the same molecule, the “sucrose preference, dose response” value in the data set with C57B6J mice [1] (0.3, 1 and 3 mg/kg i.p., 30 minutes pre-test, all time points (4, 8, 12, 24 hour)) was “dose dependent increase”. For the same molecule, in the data set on C57B6J mice [2], the immobility time entry was “significant reduction” and the latency to immobility result is on record as “significant increase”. In “in vivo”, the area under the curve AUC(0-inf) worked out at 352 ng·h/mL, the Cmax is 503 ng/mL, the Tmax came to 16 min and the half-life was 26.3 min.

Take `COc1ccc(C23CCC(O)CC2N(C)CC3)cc1OC` (stereo not shown) [Mesembranol, 3a-(3,4-dimethoxyphenyl)-1-methyl-3,4,5,6,7,7a-hexahydro-2H-indol-6-ol]: the sucrose preference entry in the data set with C57B6J mice [1] (3 mg/kg i.p.) is recorded as “statistically significant increase”. Further, in the data set with C57B6J mice [2], the immobility time result is “significant reduction” and the latency to immobility result is listed as “no changes”. Moreover, in “in vivo”, the AUC(0-inf) stood at 649 ng·h/mL, the Cmax came to 834 ng/mL, the Tmax was found to be 18 min and the half-life is 21.8 min.
